Results on 18 compounds are retold here after the supplement of paper PMC11061612.

For one experiment, the system named is SJSA-1 (Osteosarcoma). The experiment is described as follows: combination Emax (second highest fraction inhibited in the dose matrix, 72 h); higher = more inhibition; extreme values may be limits of the assay. In outline: (§1)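 Cell lines grown in DMEM/F12 or RPMI with 10% FBS were plated in 1536-well plates and held 24 hours at 37°C, 5% CO2 before 72 hours of exposure to two-drug dose matrices, with DMSO typically at 0.2%. CellTiter-Glo 2.0 luminescence gave viability, which was converted to inhibition. Vehicle wells were set to 0 and blank wells to 1. Combination Emax is the second-highest inhibition in the matrix, and Bliss excess is the observed combination effect minus the expected EA + EB − EA·EB, where EA and EB are the single-agent effects.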

Experiment [1] relates to VMRC-RCZ (Kidney Carcinoma). The description is as above. An outline of the steps: as §1

Consider `C=CCn1c(=O)c2cnc(Nc3ccc(N4CCN(C)CC4)cc3)nc2n1-c1cccc(C(C)(C)O)n1` [AZD1775] + CCc1c2c(nc3ccc(O)cc13)-c1cc3c(c(=O)n1C2)COC(=O)[C@]3(O)CC [SN-38] (first compound max 1 µM, partner max 0.3 µM), for which the figures for the “combination Emax” value (with SJSA-1 (Osteosarcoma); in experiment [1]) were 0.706 and 0.462, respectively.
In the same order, the values of `CN(CCO)CC[C@H](CSc1ccccc1)Nc1ccc(S(=O)(=O)NC(=O)c2ccc(N3CCC([C@@H](O)c4ccccc4-c4ccc(Cl)cc4)CC3)cc2)cc1S(=O)(=O)C(F)(F)F` [AZD4320] + CS(=O)(=O)CCNCc1ccc(-c2ccc3ncnc(Nc4ccc(OCc5cccc(F)c5)c(Cl)c4)c3c2)o1 [Lapatinib] (first compound max 1 µM, 7x7, partner max 10 µM) are 0.332 and 0.598.
For `Cc1c2c(nn1C)CSCc1cc(n(C)n1)CSc1cc(c3ccccc3c1)OCCCc1c(C(=O)O)n(C)c3c-2c(Cl)ccc13` [AZD5991] + CC(=O)O[C@H]1C(=O)[C@@]2(C)[C@H]([C@H](OC(=O)c3ccccc3)[C@]3(O)C[C@H](OC(=O)[C@H](O)[C@@H](NC(=O)c4ccccc4)c4ccccc4)C(C)=C1C3(C)C)[C@]1(OC(C)=O)CO[C@@H]1C[C@@H]2O [Paclitaxel] (first compound max 1 µM, 7x7, partner max 3 µM), the “combination Emax” value in the experiment with SJSA-1 (Osteosarcoma) was determined as 0.725; in experiment [1], 0.358.
Regarding `Cc1c2c(nn1C)CSCc1cc(n(C)n1)CSc1cc(c3ccccc3c1)OCCCc1c(C(=O)O)n(C)c3c-2c(Cl)ccc13` [AZD5991] + CS(=O)(=O)CCNCc1ccc(-c2ccc3ncnc(Nc4ccc(OCc5cccc(F)c5)c(Cl)c4)c3c2)o1 [Lapatinib] (first compound max 1 µM, 7x7, partner max 10 µM), the “combination Emax” value in the experiment with SJSA-1 (Osteosarcoma) is 0.196; in experiment [1] it was 0.209.
Consider `C[C@@H]1COCCN1c1cc(C2([S@](C)(=N)=O)CC2)nc(-c2ccnc3[nH]ccc23)n1` [AZD6738] + C1CC(C1)(C(=O)[O-])C(=O)[O-].N.N.[Pt+2] [Carboplatin] (first compound max 10 µM, 7x7, partner max 10 µM), for which the “combination Emax” value in the experiment with SJSA-1 (Osteosarcoma) was 0.477; in experiment [1], 0.392.
In the same order, the values of `Cc1cc2ncnn2cc1Nc1ncc2c(n1)n(C1CCOCC1)c(=O)n2C` [AZD7648] + COc1cc([C@@H]2c3cc4c(cc3[C@@H](O[C@@H]3O[C@@H]5CO[C@@H](C)O[C@H]5[C@H](O)[C@H]3O)[C@H]3COC(=O)[C@H]23)OCO4)cc(OC)c1O [Etoposide] (first compound max 10 µM, 7x7, partner max 10 µM) are 0.503 and 0.399.
For the compound `C[C@@H](Nc1cc(F)cc(F)c1)c1cc(C(=O)N(C)C)cc2c(=O)cc(N3CCOCC3)oc12` [AZD8186] + C1CN(CCC1(C(=O)N[C@@H](CCO)C2=CC=C(C=C2)Cl)N)C3=NC=NC4=C3C=CN4 [AZD5363] (first compound max 10 µM, 7x7, partner max 10 µM), the “combination Emax” value with SJSA-1 (Osteosarcoma) is 0.426; in experiment [1], 0.386.
Consider `C[C@@H](Nc1cc(F)cc(F)c1)c1cc(C(=O)N(C)C)cc2c(=O)cc(N3CCOCC3)oc12` [AZD8186] + CC(=O)c1c(C)c2cnc(Nc3ccc(N4CCNCC4)cn3)nc2n(C2CCCC2)c1=O [Palbociclib] (first compound max 10 µM, 7x7, partner max 10 µM), for which the results for the “combination Emax” value (with SJSA-1 (Osteosarcoma); in experiment [1]) were 0.376 and 0.42, respectively.
Take `C[C@@H](Oc1cc(-c2cnn(C3CCNCC3)c2)cnc1N)c1c(Cl)ccc(F)c1Cl` [Crizotinib] + CC1=C(C(=CC=C1)Cl)NC(=O)C2=CN=C(S2)NC3=CC(=NC(=N3)C)N4CCN(CC4)CCO [Dasatinib] (first compound max 10 µM, 7x7, partner max 2 µM): the “combination Emax” value was determined as 0.885 with SJSA-1 (Osteosarcoma) and 0.846 in experiment [1].
For the compound `C[C@@H](Oc1cc(-c2cnn(C3CCNCC3)c2)cnc1N)c1c(Cl)ccc(F)c1Cl` [Crizotinib] + Cn1cnc2c(F)c(Nc3ccc(Br)cc3Cl)c(C(=O)NOCCO)cc21 [Selumetinib] (first compound max 10 µM, 7x7, partner max 10 µM), the “combination Emax” value in the experiment with SJSA-1 (Osteosarcoma) is 0.82; in experiment [1], 0.174.
For the compound `O=C(c1cc(Cc2n[nH]c(=O)c3ccccc23)ccc1F)N1CCN(C(=O)C2CC2)CC1` [Olaparib] + CC1(C)CCC(CN2CCN(c3ccc(C(=O)NS(=O)(=O)c4ccc(NCC5CCOCC5)c([N+](=O)[O-])c4)c(Oc4cnc5[nH]ccc5c4)c3)CC2)=C(c2ccc(Cl)cc2)C1 [Venetoclax] (first compound max 10 µM, 7x7, partner max 1 µM), the “combination Emax” value was determined as 0.118 with SJSA-1 (Osteosarcoma) and 0.0266 in experiment [1].
With `O=C(c1cc(Cc2n[nH]c(=O)c3ccccc23)ccc1F)N1CCN(C(=O)C2CC2)CC1` [Olaparib] + CN(CC[C@H](CSC1=CC=CC=C1)NC2=C(C=C(C=C2)S(=O)(=O)NC(=O)C3=CC=C(C=C3)N4CCC(CC4)[C@H](C5=CC=CC=C5C6=CC=C(C=C6)Cl)O)S(=O)(=O)C(F)(F)F)CCO [AZD4320] (first compound max 10 µM, 7x7, partner max 1 µM), the “combination Emax” value in the experiment on SJSA-1 (Osteosarcoma) was found to be 0.133; in experiment [1] it was 0.0911.
As for `O=C(c1cc(Cc2n[nH]c(=O)c3ccccc23)ccc1F)N1CCN(C(=O)C2CC2)CC1` [Olaparib] + COc1nnc2ccc(N3CCC(c4ccc(OCCN5CCN(C)C(=O)[C@H]5C)cc4)CC3)nn12 [AZD5153] (first compound max 10 µM, 7x7, partner max 1 µM), the “combination Emax” value is 0.539 in the experiment with SJSA-1 (Osteosarcoma) and 0.248 in experiment [1].
As to `O=C(c1cc(Cc2n[nH]c(=O)c3ccccc23)ccc1F)N1CCN(C(=O)C2CC2)CC1` [Olaparib] + Cc1c2c(nn1C)CSCc1cc(n(C)n1)CSc1cc(c3ccccc3c1)OCCCc1c(C(=O)O)n(C)c3c-2c(Cl)ccc13 [AZD5991] (first compound max 10 µM, 7x7, partner max 1 µM), the “combination Emax” value is 0.0831 in the experiment on SJSA-1 (Osteosarcoma) and 0.0573 in experiment [1].
Turning to `N#Cc1cnc(Nc2cc(NC[C@H]3CNCCO3)c(C(F)(F)F)cn2)cn1` [SRA737] + C=CCn1c(=O)c2cnc(Nc3ccc(N4CCN(C)CC4)cc3)nc2n1-c1cccc(C(C)(C)O)n1 [AZD1775] (first compound max 10 µM, partner max 1 µM), the results for the “combination Emax” value (in the experiment with SJSA-1 (Osteosarcoma); in experiment [1]) were 0.535 and 0.51, respectively.
Regarding `N#Cc1cnc(Nc2cc(NC[C@H]3CNCCO3)c(C(F)(F)F)cn2)cn1` [SRA737] + CCc1c2c(nc3ccc(O)cc13)-c1cc3c(c(=O)n1C2)COC(=O)[C@]3(O)CC [SN-38] (first compound max 10 µM, 7x7, partner max 0.3 µM), the results for the “combination Emax” value (in the experiment on SJSA-1 (Osteosarcoma); in experiment [1]) were 0.664 and 0.579, respectively.
For `N#Cc1cnc(Nc2cc(NC[C@H]3CNCCO3)c(C(F)(F)F)cn2)cn1` [SRA737] + O=c1[nH]cc(F)c(=O)[nH]1 [5-Fluorouracil] (first compound max 10 µM, 7x7, partner max 20 µM), in that order: 0.403 and 0.354.
Regarding `Cc1nc(-c2cn3c(n2)-c2ccc(-c4cnn(C(C)(C)C(N)=O)c4)cc2OCC3)n(C(C)C)n1` [Taselisib] + O=C(Nc1ccc2[nH]nc(-c3ccncc3)c2c1)[C@@H]1CCN(CC(=O)N2CCN(c3ccc(-c4ncccn4)cc3)CC2)C1 [SCH772984] (first compound max 10 µM, 7x7, partner max 5 µM), the “combination Emax” value with SJSA-1 (Osteosarcoma) amounted to 0.69; in experiment [1] it was 0.361.
